Measurements published in US11498853B2, “Water with switchable ionic strength” (QUEEN'S UNIVERSITY AT KINGSTON, priority 2010, dated 2022).
Several values for one entry are separate records, joined by “and”; a condition that tells them apart may be missing. Equal entries are not always repeated. Where two headings read alike, the source gives them in different places.

Assays:
[1] = Miscibility of diamines and triamines with water in presence and absence of CO2; assay type: physicochemical; settings: 5:1 w/w water and liquid additive; for Miscibility with water, After addition of CO2: CO2 90 min; for Miscibility with water, Before addition of CO2: room temperature
Method: A 5:1 w/w solution of water and the liquid additive (total volume 5 m) were mixed together in a glass vial at room temperature. Whether the mixture formed one or two liquid phases was visually observed. Then CO2 was bubbled through the mixture via a single narrow gauge steel needle at a flow rate of ˜5 ml min^−1 for 90 min. Whether the mixture formed one or two phases was visually observed.

[2] = Solvent switching of diamidine/water system, 1H NMR; assay type: physicochemical; settings: 0.80 molal, 30 minutes CO2
Method: The diamidine was investigated as additive for switchable ionic strength solutions. […] The volumes of each phase were recorded.

[3] = Separation of THF from aqueous phase and retention of additive on switching with CO2, by 1H NMR; assay type: physicochemical
Method: (§1) The volumes of each phase were recorded.
The graduated cylinders were capped with rubber septa. […] A second narrow gauge steel tube was provided to vent the gaseous phase.
as §1

[4] = Zeta potential of suspended clay fines in switchable water; assay type: physicochemical
Method: (§2) Clay fines were weighed and placed into individual vials (0.025 g, Ward's Natural Science Establishment). Kaolinite and montmorilonite were used as received, but as illite day was ground into a powder using a motar and pestle. Solutions containing additives were made with deionized water (18.2 MΩ/cm, Millipore) and 10 ml was added to the clay fines. A suspension was created using a vortex mixer and subsequently dispensed into a folded capillary cell. The zeta potential was measured using a Malvern Zetasizer instrument. The errors reported on the zeta potential values were the standard deviations of the zeta potential peaks measured.
(§3) Unless specified, all carbon dioxide treatments were conducted with the aqueous solutions prior to addition to day fines. For applicable measurements, ultra pure carbon dioxide (Supercritical CO2 Chromatographic Grade, Paxair) was bubbled through the solutions using a syringe.

[5] = as above; assay type: physicochemical; settings: Kaolinite
Method: as §2, §3
Another experiment was performed in which CO2 was bubbled through a 1 mM aqueous solution of TMDAB that already contained clay fines (a method referred to as “switching in situ”).

[6] = Reversible protonation of amine additives in H2O monitored by conductivity; assay type: physicochemical
Method: 1:1 w/w H2O and THEED was used because a 1:1 v/v solution was too viscous to pour accurately. A trigger gas chosen from CO2, air or nitrogen was bubbled at identical flow rates through the solution via a narrow gauge steel tube and the conductivity of the solution was measured periodically using a Jenway 470 Conductivity Meter (Bibby Scientific, NJ, US) having a cell constant of 1.02 cm^−1.
The deprotonation reactions of the ionic solutions of additives in water were monitored in a similar manner, and the conductivity plot is shown in FIG. 8.
1:1 v/v solutions of the various additives and distilled, deionised water were prepared in six dram glass vials and transferred to a fritted glass apparatus which acted as a reaction vessel. The fritted glass apparatus consisted of a long narrow glass tube leading to a fine glass frit having a diameter of approximately 4 cm. The other end of the glass frit was connected to a cylindrical glass tube which held the solution of the additive during contacting with the trigger gas. This apparatus allowed a multiple source of trigger gas bubbles to contact the solution, compared to the single point source of Example 5.
A trigger gas chosen from CO2, air or nitrogen was bubbled through the solution via the glass frit at a flow rate of 110 ml min^−1 as measured by a J&W Scientific ADM 2000 Intelligent Flowmeter (CA, USA). For each conductivity measurement, the solution was transferred back to a six dram vial, cooled to 298 K and measured in triplicate. Conductivity measurements were performed using a Jenway 470 Conductivity Meter (Bibby Scientific, NJ, US) having a cell constant of 1.02 cm^−1.

[7] = 0.80 molal
Method: The methylated spermine was investigated as additive for switchable ionic strength solutions. To measure the extent of THF being forced out of an aqueous phase by an increase in ionic strength, and the amounts of amine, which remained in the aqueous phase, 1:1 w/w solutions of THF and water were prepared in graduated cylinders. The appropriate mass of amine additive to result in a 0.80 molal solution was added and the cylinders were capped with rubber septa. […] The volumes of each phase were recorded. Aliquots of the non-aqueous and aqueous layers were taken and dissolved in d3-acetonitrile in NMR tubes. A known amount of ethyl acetate was added to each NMR tube as an internal standard. ^1H NMR spectra were acquired and through integration of the ethyl acetate standard, a concentration of THF or additive was calculated and scaled up to reflect the total volume of the aqueous or non-aqueous phase giving a percentage of the compound being forced out or retained. Then argon was bubbled through the solution while heating to 50° C. until the two phases recombined (15 to 60 min). The whole switching process (30 min CO2, sample take, then another 30 min of Ar) was repeated.

[8] = Degree of protonation/deprotonation of amine additives in D2O by 1H NMR; settings: 0.1 M in D2O; for degree of protonation by CO2: room temperature
Method: In order to establish the chemical shifts of the protonated bases, molar equivalents of several strong acids, including HCl and HNO3, were added to separate solutions of the amines dissolved in D2O. ^1H NMR spectra were acquired on a Bruker AV-400 NMR spectrometer at 400.3 MHz for three replicate solutions of each amine. An average value of each chemical shift for each protonated base was calculated along with standard deviations. […] The ^1H NMR chemical shifts of the unprotonated amines were also measured.
The amine was dissolved in D2O in an NMR tube and sealed with a rubber septa. The spectrum was then acquired. Subsequently, two narrow gauge steel needles were inserted and gas was gently bubbled through one of them into the solution at approximately 4-5 bubbles per second. The second needle served as a vent for the gaseous phase.
Firstly CO2 was bubbled through the solution for the required length of time and then the spectrum was re-acquired. This process was repeated. The % protonation of the amine was determined from the observed chemical shifts by determining the amount of movement of the peaks from the normal position for the unprotonated amine towards the position expected for the fully protonated amine.
Nitrogen gas was flushed through the solution at 75° C.
In order to establish the chemical shifts of the protonated bases, molar equivalents of several strong acids, including HCl and HNO3, were added to separate solutions of the tetraamine dissolved in D2O. ^1H NMR spectra were acquired on a Bruker AV-400 NMR spectrometer at 400.3 MHz for three replicate solutions of the amine. An average value of each chemical shift for each protonated base was calculated along with standard deviations. […] The ^1H NMR chemical shifts of the unprotonated amine were also measured. […]

[9] = Salting out THF from water using secondary amine additives, 1H NMR; assay type: physicochemical; settings: 1.60 molal, 1:1 w/w THF:water, 30 minutes CO2
Method: N-tert-Butylethanolamine and N-ter-butymethylamine were investigated as additives for switchable ionic strength solutions. […] The volumes of each phase were recorded. […] The recombining of the phases when N-tert-butymethylamine was used as an additive was not successful at 30 min but was achieved by 2 h at a higher Ar flow rate of 15 mL/min. THF was added afterwards to replace the amount of THF being evaporated during the procedure.

[10] = Expulsion of THF from water and removal of additive from the aqueous phase; assay type: physicochemical; settings: for additive removed from the aqueous phase after N2 treatment: separated aqueous phase, N2 90 minutes, 60° C.
Method: 1.50 g H2O, 1.50 g THF, and 0.30 g N,N,N′N′-tetraethyl-1,4-diaminobutane (TEDAB) were mixed together in a graduated cylinder to generate a single phase solution. […] A small stir bar was added to the solution and the cylinder was capped with a rubber septa. The following procedure was run in triplicate with a new sample (of the same contents shown above) each time.
A long, narrow gauge needle was inserted through the septa into the solution. […] CO2 was bubbled through the solution a flow rate of about 5 ml/min for 45 minutes with stirring until a 2nd phase creams out on top of the aqueous phase. The CO2 bubbling was stopped and the needles withdrawn. The cylinder was immersed in a hot water bath for several seconds to facilitate the separation of the liquid phases. Both phases were clear and yellow in colour.
The organic phase was decanted off giving a mass of 1.253 g (density=0.84 g/m).
A 39.1 mg sample of the organic phase was placed in an NMR tube with deuterated acetonitrile and 50.2 mg ethyl acetate to act as an internal standard. A 66.2 mg sample of the aqueous phase was placed in a 2nd NMR tube with deuterated acetonitrile with 22.3 mg ethyl acetate to act as an internal standard. A ^1H NMR spectra was acquired and knowing the corresponding amount of ethyl acetate in each sample the resulting amounts of THF in the aqueous sample and additive in the organic sample can be calculated. Knowing the mass, volume, and density of each layer, the total amount of THF or additive in a respective layer can be calculated.
1.943 g (1.90 ml) of the aqueous phase was returned to the same graduated cylinder. The needles and septa were put back into the cylinder and the cylinder was immersed in a 60° C., water bath. N2 was introduced in the same fashion as CO2 preformed previously and the N2 was bubbled through the solution for 90 minutes where a deep yellow organic phase creams out of the aqueous phase.
A 37.9 mg sample of the aqueous phase was taken up in an NMR tube with deuterated acetonitrile and 41.5 mg ethyl acetate to act as an internal standard.

[11] = 0.80 molal additive, 1:1 w/w THF:H2O, 30 min CO2, in aqueous phase
[12] = 1:1 v/v additive:water, 25° C., glass frit
[13] = 1:1 v/v, N2 at 80° C., glass frit

CN(C)Cc1cc(CN(C)C)cc(CN(C)C)c1 [1,3,5-C6H3(CH2NMe2)3, N,N,N′,N′,N″,N″-1,3,5-benzenetrimethanamine]
Miscibility with water, After addition of CO2 [1]: miscible | Miscibility with water, Before addition of CO2 [1]: miscible

CN(C)CC1CC(CN(C)C)CC(CN(C)C)C1 (stereo not drawn) [1,3,5-cycloC6H9(CH2NMe2)3, 1,1′,1″-(cyclohexane-1,3,5-triyl)tris(N,N,-dimethylmethanamine)]
Miscibility with water, After addition of CO2 [1]: miscible | Miscibility with water, Before addition of CO2 [1]: immiscible

C/C(=N\CCCC/N=C(\C)N(C)C)N(C)C [DIAC, N,N-(butane-1,4-diyl)bis(N,N-dimethylacetimidamide)]
additive retained in the aqueous phase [2]: 99.5%

CC(O)CN(CCCN(C)C)CCCN(C)C (stereo not drawn) [DMAPAP]
% Additive Retained [3, 11]: 98.8 ± 0.4% | % Additive Retained ([3]; THF:H2O:Additive 3:3:1 w/w/w): 87.1 ± 7.3% | % Additive Retained ([3]; THF:H2O:Additive 5:5:1 w/w/w): 98.4 ± 0.4% | % Additive Retained ([3]; THF:H2O:Additive 10:10:1 w/w/w): 96.0 ± 0.8% | % Additive Retained ([3]; THF:H2O:Additive 15:15:1 w/w/w): 94.4 ± 1.1% | Zeta Potential ([4]; Illite, 0.8 molal additive): −19.1 ± 3.92 mV | Zeta Potential ([4]; Illite, 0.8 molal additive + 1 h CO2): −1.87 mV | Zeta Potential ([4]; Montmorillonite, 0.8 molal additive): −16.8 ± 4.64 mV | Zeta Potential ([4]; Montmorillonite, 0.8 molal additive + 1 h CO2): −2.99 mV | Zeta Potential ([5]; 0.8 molal additive): −24.3 ± 2.29 mV | Zeta Potential ([5]; 0.8 molal additive + 1 h CO2): −3.99 mV | conductivity on CO2 bubbling [6, 12]: lower conductivities than TMDAB

CN(C)CCN(C)CCN(C)CCN(C)C [HMTETA, 1,1,4,7,10,10-hexamethyl triethylenetetramine]
% Additive Retained [3, 11]: 99.3 ± 0.4% | % Additive Retained ([3]; THF:H2O:Additive 3:3:1 w/w/w): 95.6 ± 1.5% | % Additive Retained ([3]; THF:H2O:Additive 5:5:1 w/w/w): 98.4 ± 1.2% | % Additive Retained ([3]; THF:H2O:Additive 10:10:1 w/w/w): 98.0 ± 1.0% | % Additive Retained ([3]; THF:H2O:Additive 15:15:1 w/w/w): 98.2 ± 0.3% | conductivity on CO2 bubbling [6, 12]: lower conductivities than TMDAB | conductivity of ionic form after 20 minutes of N2 [6, 13]: close to zero

CN(C)CCCN(C)CCCCN(C)CCCN(C)C [MeSpe, N^1,N^1′-(butane-1,4-diyl)bis(N^1,N^2,N^3-trimethylpropane-1,3-diamine)]
Additive retained in THF ([7]; 30 min CO2, run 1): 99.85% | Additive retained in THF ([7]; 30 min CO2, run 2): 99.79% | degree of protonation by CO2 [8]: 93%

CC(C)(C)NCCO [N-tert-butylethanolamine]
Additive retained in H2O [9]: 99.84 ± 0.04%

CNC(C)(C)C [N-tert-butymethylamine]
Additive retained in H2O [9]: 99.75 ± 0.04%

CCCN(CCC)CCCCN(CCC)CCC [Pr2NCH2CH2CH2CH2NPr2, N,N,N′,N′-tetrapropyl-1,4-diaminobutane]
Miscibility with water, After addition of CO2 [1]: immiscible | Miscibility with water, Before addition of CO2 [1]: immiscible

CCCN(CC)CCCCN(CC)CCC [PrEtNCH2CH2CH2CH2NPrEt, N,N′-diethyl-N,N′-dipropyl-1,4-diaminobutane]
Miscibility with water, After addition of CO2 [1]: miscible | Miscibility with water, Before addition of CO2 [1]: immiscible | additive removed from the aqueous phase after N2 treatment [10]: 81%

CCN(CC)CCCCN(CC)CC [TEDAB, N, N, N′, N′-tetraethyl-1,4-diaminobutane]
Miscibility with water, After addition of CO2 [1]: miscible | Miscibility with water, Before addition of CO2 [1]: immiscible | additive residing in the aqueous phase after CO2 treatment ([10]; 1.50 g H2O, 1.50 g THF, 0.30 g additive, CO2 45 minutes): 91.1±3.7% | additive removed from the aqueous phase after N2 treatment [10]: 49.3±6.3%

OCCN(CCO)CCN(CCO)CCO [THEED, N, N, N′, N′-tetrakis(2-hydroxyethyl) ethylenediamine]
degree of deprotonation ([8]; N2 bubbling at 75° C., 2 hours (120 minutes)): 98% | degree of protonation by CO2 ([8]; by 10 minutes): 49%

CN(C)CCCCN(C)C [TMDAB, N, N, N′, N′-tetramethyl-1,4-diaminobutane]
% Additive Retained [3, 11]: 99.2 ± 0.4% | % Additive Retained ([3]; THF:H2O:Additive 3:3:1 w/w/w): 87.1 ± 2.1% | % Additive Retained ([3]; THF:H2O:Additive 5:5:1 w/w/w): 99.8% and 99.6 ± 0.1% | % Additive Retained ([3]; THF:H2O:Additive 10:10:1 w/w/w): 99.4 ± 0.1% | % Additive Retained ([3]; THF:H2O:Additive 15:15:1 w/w/w): 98.4 ± 0.4% | reduction of conductivity ([6]; 1:1 v/v H2O:amine, 90 minutes, 80° C., N2 through a glass frit): approximately 95% | rate of conductivity increase on CO2 bubbling [6, 12]: highest rate of conductivity increase | rate of conductivity decrease on N2 flushing [6, 13]: highest
